Measured values from patent US20240366624A1, “METHODS AND COMPOSITIONS FOR TREATING THROMBOTIC DISEASE” (Washington University, priority 2023, published 2024).

Key:
PDI = PDI (Homo sapiens, UniProt P07237); assay: PDI activity assay; format: biochemical; conditions: 100 μM
From the text: (§1) FIG. 17(A-F) is an exemplary embodiment of identification of novel ERO1α inhibitors by high throughput screening in accordance with the present disclosure. FIG. 17A: A scheme of an ERO1α activity assay. FIG. 17B: Screening of chemical libraries in the ERO1α activity assay. FIG. 17C: The inhibitory effect of selected compounds on ERO1α activity. FIG. 17D: The inhibitory effect of selected compounds on PDI activity. FIG. 17E: The inhibitory effect of selected compounds on H2O2 activity. FIG. 17F: The inhibitory effect of selected compounds on thiol-reacting activity. The data represent the mean±SD (n=3). *P<0.05, **P<0.01, ***P<0.001, and ****P<0.0001 vs. vehicle control, Student's t-test.
(§2) To identify a novel ERO1α inhibitor, 5800 compounds were screened using an ERO1α activity assay (FIG. 17A and FIG. 17B). […] The selected compounds were further tested in assays measuring PDI, antioxidant, and thiol-reacting activities (FIG. 17D through FIG. 17F). […] B12 inhibited P-selectin exposure and αIIbβ3 activation in agonist-activated mouse and human platelets in a concentration-dependent manner (FIG. 18B through FIG. 18E).

[1] = target: T1, MAO-A (monoamine oxidase A) (Homo sapiens, UniProt P21397); assay: MAO-A activity assay; format: biochemical; conditions: 100 μM
T1 sequence (P21397 1-527): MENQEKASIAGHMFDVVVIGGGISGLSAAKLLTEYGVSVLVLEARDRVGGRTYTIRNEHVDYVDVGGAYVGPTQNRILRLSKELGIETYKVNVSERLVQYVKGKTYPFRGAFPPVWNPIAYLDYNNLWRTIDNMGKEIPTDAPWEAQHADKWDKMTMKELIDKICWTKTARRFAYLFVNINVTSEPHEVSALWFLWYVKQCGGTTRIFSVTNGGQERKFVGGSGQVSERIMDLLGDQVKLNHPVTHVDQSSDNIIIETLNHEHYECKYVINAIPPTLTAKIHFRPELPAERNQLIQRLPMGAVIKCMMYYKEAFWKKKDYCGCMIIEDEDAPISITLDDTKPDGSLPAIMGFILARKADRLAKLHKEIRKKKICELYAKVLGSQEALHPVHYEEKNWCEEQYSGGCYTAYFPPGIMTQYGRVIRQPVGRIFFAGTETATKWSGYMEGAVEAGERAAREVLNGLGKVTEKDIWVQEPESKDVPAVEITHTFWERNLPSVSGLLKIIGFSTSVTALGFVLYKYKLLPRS

ERO1α = target: T2, ERO1α (Homo sapiens, UniProt Q96HE7); assay: ERO1α activity assay; format: biochemical; conditions: 20 μM
T2 sequence (Q96HE7 24-468): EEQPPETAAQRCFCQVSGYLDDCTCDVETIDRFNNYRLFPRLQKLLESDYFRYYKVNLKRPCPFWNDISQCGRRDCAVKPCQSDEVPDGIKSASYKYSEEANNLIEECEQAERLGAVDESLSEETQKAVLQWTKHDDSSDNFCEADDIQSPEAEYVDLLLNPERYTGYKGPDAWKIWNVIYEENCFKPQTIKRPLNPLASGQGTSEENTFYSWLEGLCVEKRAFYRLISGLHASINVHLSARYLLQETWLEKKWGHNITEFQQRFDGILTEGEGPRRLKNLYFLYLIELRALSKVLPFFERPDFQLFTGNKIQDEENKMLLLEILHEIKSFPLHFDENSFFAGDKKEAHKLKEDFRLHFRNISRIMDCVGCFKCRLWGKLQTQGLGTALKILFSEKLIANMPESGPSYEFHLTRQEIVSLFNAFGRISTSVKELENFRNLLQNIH
From the text: as §1, §2

[2] = H2O2 (antioxidant) activity assay; format: biochemical; conditions: 100 μM
From the text: as §1, §2

[3] = thiol-reacting (GSH) activity assay; format: biochemical; conditions: 100 μM
From the text: as §1, §2

Ero1α-null platelets = assay: Platelet aggregation, Ero1α-null platelets; format: cell-based, mouse; conditions: 50 μg/mL protein, 0.025 U/mL thrombin
Description: FIG. 7(A-L) is an exemplary embodiment of crucial intracellular ERO1α (endoplasmic reticulum oxidoreductase 1a) for platelet activation, aggregation, and thrombus formation in accordance with the present disclosure. FIG. 7A: Ex vivo platelet thrombus formation in a flow chamber assay. Adherent and aggregated platelets were stained with rhodamine-conjugated phalloidin and imaged by confocal microscopy. Representative images (bar, 10 μm). Surface coverage and thrombus volume were measured (mean±SD, n=4). FIG. 7(B-E): Aggregation and ATP secretion of wild type (WT) and Ero1α-null platelets were induced by 0.025 U/mL thrombin, 0.05 μg/mL CRP (collagen-related peptide), 0.5 μM A23187, or 2.5 μM ADP. Platelet aggregation (i) and ATP secretion (ii). FIG. 7F: Ero1α-null platelets were pretreated with 50 μg/mL wtERO1α or wtPDI and then with 0.025 U/mL thrombin. Quantification graphs of aggregation and ATP secretion are presented as the mean±SD (n=3-4). FIG. 7G and FIG. 7H: P-selectin exposure and αIIbβ3 integrin activation of WT and Ero1α-null platelets were analyzed by flow cytometry. The data are presented as the geometric mean fluorescence intensity (MFI) value (mean±SD, n=3-4). FIG. 7I: WT and Ero1α-null platelets were treated with or without 0.025 U/mL thrombin for 1 minute in an aggregometer. The lysates were immunoprecipitated with control IgG or anti-β3 antibodies and subjected to immunoblotting with antibodies against talin1 or β3 and densitometric analysis (mean±SD, n=3). FIG. 7J: WT and Ero1α-null platelets were treated with or without 0.025 U/mL thrombin, followed by transmission electron microscopy. The original magnification was 34 800, and the extension was 313 000. Bar, 500 nm. FIG. 7K and FIG. 7L: Intravital microscopy was performed to determine the effect of 15E9 (1-3 μg/g body weight [BW]) and a blocking anti-PDI (protein disulfide isomerase) antibody (BD34, 3 μg/g BW) on platelet thrombus formation and fibrin generation at the site of laser-induced cremaster arteriolar injury (n=27-40 arterioles in 6 mice per group). The n indicates biological replicates. P values determined by unpaired Student t test (FIG. 7(A-E) and FIG. 7(G-1)), ANOVA and Dunnett test (FIG. 7F), or Mann-Whitney U test (FIG. 7K and FIG. 7L).
FIG. 9(A-C) is an exemplary embodiment of EN460 inhibiting thrombin-induced aggregation of mouse and human platelets in accordance with the present disclosure. […] P values determined by ANOVA and Dunnett's test (FIG. 9(A-B)) or Student's t-test (FIG. 9C).
FIG. 10(A-E) is an exemplary embodiment of 15E9 not affecting platelet activation and aggregation in accordance with the present disclosure. […] P values determined by unpaired Student's t-test (vs. mIgG1). […]

PDI, sequence (P07237 18-508, species assumed): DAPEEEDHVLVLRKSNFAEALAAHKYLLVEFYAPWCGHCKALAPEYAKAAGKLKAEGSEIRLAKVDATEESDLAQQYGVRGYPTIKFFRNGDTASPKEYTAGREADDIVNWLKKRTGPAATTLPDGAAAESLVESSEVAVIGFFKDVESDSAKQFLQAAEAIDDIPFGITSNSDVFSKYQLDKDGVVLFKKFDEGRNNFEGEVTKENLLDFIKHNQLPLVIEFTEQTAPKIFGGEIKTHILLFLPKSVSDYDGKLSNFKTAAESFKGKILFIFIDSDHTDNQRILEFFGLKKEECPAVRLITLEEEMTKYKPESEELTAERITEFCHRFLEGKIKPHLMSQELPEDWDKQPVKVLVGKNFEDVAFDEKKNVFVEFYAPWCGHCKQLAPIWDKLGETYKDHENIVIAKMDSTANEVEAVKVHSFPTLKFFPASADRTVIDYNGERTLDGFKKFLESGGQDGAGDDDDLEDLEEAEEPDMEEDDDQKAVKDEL

Row | Compound | PDI inhibition at 100 μM (%) (PDI) | MAO-A inhibition at 100 μM (%) [1] | ERO1α inhibition at 20 μM (%) (ERO1α) | H2O2 inhibition at 100 μM (%) [2] | GSH inhibition at 100 μM (%) [3] | rescue of the defect in Ero1α-null platelet aggregation (Ero1α-null platelets)
1 | O=C(COc1ccccc1)N1c2ccccc2Sc2ccccc21 [B12-3] | 10.2 ± 3% | 24.8 ± 4% | 57.0 ± 19% | 2.1 ± 1% | 22.3 ± 7% | –
2 | O=C(COc1ccc(O)cc1)N1c2ccccc2Sc2ccccc21 [B12-4] | 13.2 ± 3% | 34.8 ± 4% | 74.0 ± 17% | 6.0 ± 2% | 27.2 ± 7% | –
3 | N#Cc1cc(SCC(=O)N2c3ccccc3Sc3ccccc32)nc2c1CCCC2 [B12-6] | 20.2 ± 4% | 37.7 ± 8% | 87.6 ± 17% | 1.7 ± 1% | 30.1 ± 10% | –
4 | O=C(COc1nc2ccccc2s1)n1c2ccccc2c2ccccc21 [B12-8*] | 8.6 ± 3% | 22.3 ± 5% | 48.6 ± 10% | 0.3 ± 0.1% | 13.6 ± 3% | –
5 | COc1ccc2nc(SCC(=O)n3c4ccccc4c4ccccc43)nc(C)c2c1 [B12-13*] | 19.1 ± 4% | 36.7 ± 8% | 53.7 ± 9% | 4.2 ± 1% | 33.1 ± 4% | –
6 | CCCc1cc(O)nc(SCC(=O)N2c3ccccc3Sc3ccccc32)n1 [B12-16] | 11.9 ± 3% | 34.3 ± 6% | 11.5 ± 3% | 80.0 ± 18% | 21.9 ± 6% | –
7 | wtPDI: recombinant wild-type PDI | – | – | – | – | – | did not rescue

Now from value to compound, other results behind:

Row | PDI inhibition at 100 μM (%) (PDI) | MAO-A inhibition at 100 μM (%) [1] | ERO1α inhibition at 20 μM (%) (ERO1α) | Compound | H2O2 inhibition at 100 μM (%) [2] | GSH inhibition at 100 μM (%) [3] | rescue of the defect in Ero1α-null platelet aggregation (Ero1α-null platelets)
8 | 30.3 ± 8% | 39.1 ± 8% | 75.5 ± 20% | CCCn1c(SCC(=O)N2c3ccccc3Sc3ccccc32)nc2ccccc21 [B12-7] | 1.9 ± 1% | 33.3 ± 10% | –
9 | 23.1 ± 5% | 28.1 ± 5% | 82.3 ± 20% | Cc1nc2ccccc2nc1SCC(=O)N1c2ccccc2Sc2ccccc21 [B12-11] | 2.3 ± 1% | 33.5 ± 4% | –
10 | 21.4 ± 6% | 28.3 ± 5% | 59.0 ± 6% | CCCn1c2ccccc2c2nnc(SCC(=O)N3c4ccccc4Sc4ccccc43)nc21 [B12-14] | 3.4 ± 1% | 31.9 ± 5% | –
11 | 12.4 ± 5% | 37.5 ± 7% | 83.9 ± 16% | COc1cc(O)nc(SCC(=O)N2c3ccccc3Sc3ccccc32)n1 [B12-18] | 0.2 ± 0.1% | 25.9 ± 5% | –
12 | 6.7 ± 2% | 50.2 ± 7% | 82.3 ± 15% | Cc1cc(O)nc(SCC(=O)N2c3ccccc3Sc3ccccc32)n1 [B12-20] | 2.3 ± 1% | 10.2 ± 2% | –
13 | 38.5 ± 8% | 28.8 ± 6% | 60.5 ± 8% | O=C(COc1nc2ccccc2s1)N1c2ccccc2Sc2ccccc21 [B12-22] | 4.9 ± 1% | 62.5 ± 7% | –
